Data taken from patent US20260062426A1, “CYCLIN DEPENDENT KINASE DEGRADERS AND METHODS OF USE THEREOF” (Differentiated Therapeutics Inc, priority 2023, published 2026).

Tests used:
Assay type in all cases: cell-based
CCNE1 = biological target: T1, CCNE1 (Homo sapiens, UniProt P24864+P24941); experiment: CCNE1 HIBIT PQ (protein quantification), degradation; settings: for CCNE1 HIBIT PQ Max (%): Max = Maximum; for DC50: PQ = Protein Quantification
T1 construct: host or cells: HEK293
Outline: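 Compound was applied for 6 hours to HEK293 cells expressing HiBiT-tagged CCNE1, which had been seeded overnight in 384-well plates at 1.6×10⁵ cells/well. CCNE1 protein was then read by HiBiT assay against a high control of 0.1% DMSO-treated cells and a low control of medium only. These readings gave DC50 and maximal degradation.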

CDK2 = biological target: T2, CDK2 (Homo sapiens, UniProt P24941); experiment: CDK2 HIBIT PQ (protein quantification), degradation; settings: for CDK2 HIBIT PQ Max (%): Max = Maximum; for DC50: PQ = Protein Quantification
T2 construct: host or cells: HEK293
Outline: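 HEK293 cells carrying HiBiT-tagged CDK2 were grown in DMEM with 10% FBS and seeded in 384-well plates at 1.6×10^5 cells/well in 50 uL, then incubated overnight at 37° C and 5% CO2. After 6 hours of compound treatment, 20 μL of HiBiT reagent (Nano-Glo HiBiT lytic buffer, lytic substrate, LgBiT protein) was added and plates were shaken for 20 minutes at room temperature before an EnVision reading. High control was 0.1% DMSO and low control was medium only. Maximal degradation and DC50 were derived from these readings.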

CDK9 = biological target: T3, CDK9 (Homo sapiens, UniProt P50750); experiment: CDK9 HIBIT PQ (protein quantification), degradation; settings: for Dmax: Max = Maximum; for DC50: PQ = Protein Quantification
T3 construct: host or cells: HEK293
Outline: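 In 384-well plates, HEK293 cells with HiBiT-tagged CDK9, grown in DMEM with 10% FBS, were seeded at 1.6×10^5 cells/well in 50 uL and kept overnight at 37° C and 5% CO2. After compound treatment, a HiBiT assay quantified CDK9 protein against a high control of 0.1% DMSO-treated cells and a low control of culture medium only. Maximal degradation, Dmax and DC50 were derived from the resulting signal.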

T3 sequence (P50750 whole entry): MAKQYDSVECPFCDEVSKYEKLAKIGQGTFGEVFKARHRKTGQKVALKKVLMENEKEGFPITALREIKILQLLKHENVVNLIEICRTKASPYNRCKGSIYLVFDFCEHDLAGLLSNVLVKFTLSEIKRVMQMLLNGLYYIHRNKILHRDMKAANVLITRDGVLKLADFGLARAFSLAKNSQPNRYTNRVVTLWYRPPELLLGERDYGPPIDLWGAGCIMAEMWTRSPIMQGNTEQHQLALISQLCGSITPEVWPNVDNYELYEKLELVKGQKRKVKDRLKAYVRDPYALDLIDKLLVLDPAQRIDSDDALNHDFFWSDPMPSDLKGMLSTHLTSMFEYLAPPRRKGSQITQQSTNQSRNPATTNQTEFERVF

Structure (SMILES)	CCNE1 HIBIT PQ Max (%) (CCNE1)	CDK2 HIBIT PQ Max (%) (CDK2)	DC50 (CDK2)	Dmax (CDK9)	DC50 (CCNE1)	DC50 (CDK9)
CC(C)Oc1c(-c2cn[nH]c2)ncn2nc(Nc3ccc(S(=O)(=O)c4cccc(CN5CCC(c6ccc7c(c6)n(C)c(=O)n7C6CCC(=O)NC6=O)CC5)c4)cc3F)nc12 (racemic) [Compound 25]	21%	81%	0.2 nM	41%	–	–
CC(C)Oc1c(-c2cn[nH]c2)ncn2nc(Nc3ccc(S(=O)(=O)N(C)CCCN4CCC(c5cccc6c5n(C)c(=O)n6C5CCC(=O)N(C)C5=O)CC4)cc3F)nc12 (racemic) [Compound 28]	0%	6%	–	2%	–	–
CC(C)Oc1c(-c2cn[nH]c2)ncn2nc(Nc3ccc(S(=O)(=O)c4cccc(CC5CC(c6ccc7c(c6)n(C)c(=O)n7[C@H]6CCC(=O)NC6=O)C5)c4)cc3F)nc12 (mixture of isomers) [Compound 31, (3S)-3-[5-(3-{[3-(3-fluoro-4-{[8-isopropoxy-7-(1H-pyrazol-4-yl)-[1,2,4]triazolo[1,5-c]pyrimidin-2-yl]amino}benzenesulfonyl)phenyl]methyl}cyclobutyl)-3-methyl-2-oxo-1,3-benzodiazol-1-yl]piperidine-2,6-dione]	26%	81%	1.7 nM	9%	–	–
CC(C)Oc1c(-c2cn[nH]c2)ncn2nc(Nc3ccc(S(=O)(=O)c4cccc(CC5CC(c6ccc(C(=O)NC7CCC(=O)NC7=O)cc6)C5)c4)cc3F)nc12 (racemic) [Compound 32, rac-N-[(3R)-2,6-dioxopiperidin-3-yl]-4-(3-{[3-(3-fluoro-4-{[8-isopropoxy-7-(1H-pyrazol-4-yl)-[1,2,4]triazolo[1,5-c]pyrimidin-2-yl]amino}benzenesulfonyl)phenyl]methyl}cyclobutyl)benzamide]	62%	89%	78.1 nM	62%	> 3000 nM	396 nM
CC(C)Oc1c(-c2cn[nH]c2)ncn2nc(Nc3ccc(S(=O)(=O)c4cccc(CN5CCN(c6ccc7c(N8CCC(=O)NC8=O)nn(C)c7c6)CC5C)c4)cc3F)nc12 (racemic) [Compound 39]	67%	96%	3.3 nM	60%	14.9 nM	58.5 nM
CC(C)Oc1c(-c2cn[nH]c2)ncn2nc(Nc3ccc(S(=O)(=O)c4cccc(CN5CCN(c6ccc7c(N8CCC(=O)NC8=O)nn(C)c7c6)C(C)C5)c4)cc3F)nc12 (racemic) [Compound 41]	41%	94%	3.9 nM	57%	–	28 nM
CC(C)Oc1c(-c2cn[nH]c2)ncn2nc(Nc3ccc(S(=O)(=O)c4cccc(CN5CCN(c6ccc7c(N8CCC(=O)NC8=O)nn(C)c7c6)CC5C(C)C)c4)cc3F)nc12 (racemic) [Compound 42, rac-(R)-1-(6-(4-(3-((3-fluoro-4-((8-isopropoxy-7-(1H-pyrazol-4-yl)-[1,2,4]triazolo[1,5-c]pyrimidin-2-yl)amino)phenyl)sulfonyl)benzyl)-3-isopropylpiperazin-1-yl)-1-methyl-1H-indazol-3-yl)dihydropyrimidine-2,4(1H,3H)-dione]	67%	95%	14.9 nM	61%	78.9 nM	306 nM
CC(C)Oc1c(-c2cn[nH]c2)ncn2nc(Nc3ccc(S(=O)(=O)c4cccc(CN5CCN(c6ccc7c(N8CCC(=O)NC8=O)nn(C)c7c6)C(C(C)C)C5)c4)cc3F)nc12 (racemic) [Compound 43, rac-1-{6-[(2R)-4-{[3-(3-fluoro-4-{[8-isopropoxy-7-(1H-pyrazol-4-yl)-[1,2, 4]triazolo[1,5-c]pyrimidin-2-yl]amino}benzenesulfonyl)phenyl]methyl}-2-isopropylpiperazin-1-yl]-1-methylindazol-3-yl}-1,3-diazinane-2,4-dione]	76%	94%	14.5 nM	75%	96.5 nM	307 nM
CC(C)Oc1c(-c2cn[nH]c2)ncn2nc(Nc3ccc(S(=O)(=O)N(C)CCCN4CCC(c5ccc6c(c5)n(C)c(=O)n6C5CCC(=O)NC5=O)CC4)c4ccoc34)nc12 (racemic) [Compound 53]	61%	87%	0.2 nM	67%	0.74 nM	2.64 nM
CC(C)Oc1c(-c2cn[nH]c2)ncn2nc(Nc3ccc(S(=O)(=O)N(C)CCCN4CCC(c5ccc6c(c5)n(C)c(=O)n6C5CCC(=O)NC5=O)CC4)cc3)nc12 (racemic) [Compound 54]	82%	89%	0.1 nM	74%	0.59 nM	1.57 nM
Cc1c(S(=O)(=O)N(C)CCCN2CCC(c3ccc4c(c3)n(C)c(=O)n4C3CCC(=O)NC3=O)CC2)ccc(Nc2nc3c(OC(C)C)c(-c4cn[nH]c4)ncn3n2)c1F (racemic) [Compound 55, rac-(R)-N-(3-(4-(1-(2,6-dioxopiperidin-3-yl)-3-methyl-2-oxo-2,3-dihydro-1H-benzo[d]imidazol-5-yl)piperidin-1-yl)propyl)-3-fluoro-4-((8-isopropoxy-7-(1H-pyrazol-4-yl)-[1,2,4]triazolo[1,5-c]pyrimidin-2-yl)amino)-N,2-dimethylbenzenesulfonamide]	76%	91%	0.1 nM	83%	0.51 nM	1.13 nM
CC(C)Oc1c(-c2cn[nH]c2)ncn2nc(Nc3ccc(S(=O)(=O)N(C)CCCN4CCC(c5ccc6c(c5)n(C)c(=O)n6C5CCC(=O)NC5=O)CC4)c(F)c3F)nc12 (racemic) [Compound 56]	82%	93%	–	90%	0.23 nM	0.48 nM
Cc1cc(S(=O)(=O)N(C)CCCN2CCC(c3ccc4c(c3)n(C)c(=O)n4C3CCC(=O)NC3=O)CC2)cc(F)c1Nc1nc2c(OC(C)C)c(-c3cn[nH]c3)ncn2n1 (racemic) [Compound 57]	76%	90%	0.3 nM	82%	0.62 nM	2.25 nM
CC(C)Oc1c(-c2cn[nH]c2)ncn2nc(Nc3c(F)cc(S(=O)(=O)N(C)CCCN4CCC(c5ccc6c(c5)n(C)c(=O)n6C5CCC(=O)NC5=O)CC4)cc3F)nc12 (racemic) [Compound 58]	86%	94%	0.1 nM	86%	0.39 nM	1.51 nM
Cc1cc(Nc2nc3c(OC(C)C)c(-c4cn[nH]c4)ncn3n2)c(F)cc1S(=O)(=O)N(C)CCCN1CCC(c2ccc3c(c2)n(C)c(=O)n3C2CCC(=O)NC2=O)CC1 (racemic) [Compound 59]	66%	86%	0.1 nM	68%	0.4 nM	1.34 nM
CC(C)Oc1c(-c2cn[nH]c2)ncn2nc(Nc3cc(F)c(S(=O)(=O)N(C)CCCN4CCC(c5ccc6c(c5)n(C)c(=O)n6C5CCC(=O)NC5=O)CC4)cc3F)nc12 (racemic) [Compound 60]	74%	93%	–	75%	0.45 nM	1.52 nM
CC(C)Oc1c(-c2cn[nH]c2)ncn2nc(Nc3ccc(S(=O)(=O)N(C)CCCN4CCC(c5ccc6c(c5)n(C)c(=O)n6C5CCC(=O)NC5=O)CC4)c4cnccc34)nc12 (racemic) [Compound 61]	72%	86%	0.3 nM	78%	1.55 nM	3.2 nM
CC(C)Oc1c(-c2cn[nH]c2)ncn2nc(Nc3ccc(S(=O)(=O)N(C)CCCN4CCN(c5ccc6c(c5)n(C)c(=O)n6C5CCC(=O)NC5=O)CC4(C)C)cc3F)nc12 (racemic) [Compound 67]	73%	92%	< 0.152 nM	91%	1.08 nM	1.52 nM
CC(C)Oc1c(-c2cn[nH]c2)ncn2nc(Nc3ccc(S(=O)(=O)N4CC5(CCCN(CC6CCN(c7cccc8c7n(C)c(=O)n8C7CCC(=O)NC7=O)CC6)C5)C4)cc3F)nc12 (racemic) [Compound 76]	40%	87%	5.8 nM	46%	–	–
CC(C)Oc1c(-c2cn[nH]c2)ncn2nc(Nc3ccc(S(=O)(=O)c4cccc(C(C)N5CCC(c6ccc7c(N8CCC(=O)NC8=O)nn(C)c7c6)CC5)c4)cc3F)nc12 (racemic) [Compound 85]	80%	93%	1.5 nM	82%	9.64 nM	12 nM
CC(C)Oc1c(-c2cn[nH]c2)ncn2nc(Nc3ccc(S(=O)(=O)N4CCCC(CN5CC(c6ccc7c(N8CCC(=O)NC8=O)nn(C)c7c6)C5)C4)cc3F)nc12 (racemic) [Compound 86]	38%	56%	1.3 nM	20%	–	–
